# Assay results: patent US20250382344A1, “Soluble GLP1/GIP/NPY2 Receptor Triple Agonists” (Boehringer Ingelheim International GmH, priority 2024, published 2025)
# Where two headings read alike, the source gives them in different places.
# Key:
# hGLP1R = molecular target: T1, hGLP1R (Homo sapiens, UniProt P43220); test: hGLP1R CreLuc assay in 0.5% and 100% plasma (HEK-293 CRE-luciferase reporter cells); format: cell-based; conditions: HEK-293 reporter cells
# T1 construct: expressed in transfected cells; host or cells: HEK-293 CRE-luciferase reporter cells
# From the text: CHO and HEK-293 recombinant cell lines express a luciferase reporter gene under control of the CAMP responsive element (CRE). As a second recombinant protein the GLP-1 and NPY2 receptors were expressed in the reporter gene HEK cells, and the GIP receptor was expressed in the reporter gene CHO cells, respectively. Stimulation of these recombinant cells with an agonist leads to an increase of intracellular CAMP levels. In the presence of CAMP, the transcription factor CRE binding protein (CREB) binds to the CRE and to the CREB binding protein (CBP), which leads to transcription of the luciferase reporter gene. Peptides upon serial-dilution in 100% DMSO were transferred into 384-well assay plates with 5 μl pre-dispensed assay buffer (1×HBSS, 20 mM HEPES, pH7.4 supplemented with 0.5% human plasma) using acoustic dispensing on a Labcyte ECHO. Cryo-preserved transgenic reporter gene cells were thawed in assay buffer. 20 μl (10.000 cells/well) were added to the plate with the peptides and incubated for 4 hours at 37° C. in a humidified incubator. Following incubation, assay plates are equilibrated to room temperature, followed by addition of 25 μl of Bright-Glo™ Luciferase reagent, incubation at room temperature for 10 minutes and analysis of luminescence (Envision Reader). […] EC50 values were calculated by non-linear regression using sigmoid concentration-response with variable slope.
# The same assays were run in the presence of 100% plasma with no additional buffer constituents.
# hGIPR = molecular target: T2, hGIPR (Homo sapiens, UniProt P48546); test: hGIPR CreLuc assay in 0.5% and 100% plasma (CHO CRE-luciferase reporter cells); format: cell-based; conditions: 0.5% human plasma, read-out: hGIPR 0.5% hP
# T2 construct: expressed in transfected cells; host or cells: CHO CRE-luciferase reporter cells
# T2 sequence (P48546 22-466): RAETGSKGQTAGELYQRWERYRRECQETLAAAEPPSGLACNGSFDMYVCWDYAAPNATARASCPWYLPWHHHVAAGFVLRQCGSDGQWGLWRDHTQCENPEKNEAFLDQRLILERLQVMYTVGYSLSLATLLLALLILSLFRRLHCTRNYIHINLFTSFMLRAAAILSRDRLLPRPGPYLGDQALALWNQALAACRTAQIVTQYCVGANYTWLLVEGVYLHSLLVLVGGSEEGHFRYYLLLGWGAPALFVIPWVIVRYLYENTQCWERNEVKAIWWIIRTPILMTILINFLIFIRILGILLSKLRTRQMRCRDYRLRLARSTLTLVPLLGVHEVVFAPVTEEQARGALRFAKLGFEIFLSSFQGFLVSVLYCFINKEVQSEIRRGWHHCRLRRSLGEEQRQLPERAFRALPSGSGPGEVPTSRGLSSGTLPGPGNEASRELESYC
# [1] = Solubility in 0.1 M phosphate buffer at pH 7; format: physicochemical; conditions: 0.1 M phosphate buffer at pH 7, 10 mg/mL final peptide concentration, shaking 2 hours at room temperature, peptides as TFA-salts; measured sample pH 6.5-7.0
# [2] = 0.5% human plasma, read-out: hGLP1R 0.5% hP
# [3] = 100% human plasma, read-out: hGLP1R 100% hP
# T1 sequence (P43220 24-463): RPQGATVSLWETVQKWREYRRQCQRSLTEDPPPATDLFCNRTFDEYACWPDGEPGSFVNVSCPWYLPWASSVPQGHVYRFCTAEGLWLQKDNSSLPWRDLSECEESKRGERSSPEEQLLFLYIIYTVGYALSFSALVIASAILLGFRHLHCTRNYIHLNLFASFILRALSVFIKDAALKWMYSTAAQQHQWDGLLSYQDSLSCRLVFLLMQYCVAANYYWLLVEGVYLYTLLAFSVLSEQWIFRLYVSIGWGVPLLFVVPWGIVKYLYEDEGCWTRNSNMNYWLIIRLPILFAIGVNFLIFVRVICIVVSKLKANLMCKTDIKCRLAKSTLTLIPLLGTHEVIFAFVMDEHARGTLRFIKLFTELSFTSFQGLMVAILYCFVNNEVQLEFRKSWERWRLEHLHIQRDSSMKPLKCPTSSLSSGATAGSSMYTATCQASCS
EC50 (hGLP1R; [2]),EC50 (hGIPR),solubility at 2 h [1],EC50 (hGLP1R; [3]),Structure (SMILES)
0.4 nM,0.1 nM,4300 µg/mL,,"CC[C@H](C)[C@H](NC(=O)[C@H](CC(C)C)NC(=O)[C@H](Cc1c[nH]cn1)NC(=O)[C@H](CCCNC(=N)N)NC(=O)[C@@H](NC(=O)[C@H](Cc1ccccc1)NC(=O)[C@H](C)NC(=O)C(C)(C)NC(=O)[C@H](CCC(N)=O)NC(=O)[C@H](C)NC(=O)[C@H](CCC(N)=O)NC(=O)[C@H](CCCCN)NC(=O)[C@H](CCC(=O)O)NC(=O)[C@H](CC(C)C)NC(=O)C(C)(C)NC(=O)[C@@H](NC(=O)[C@H](CO)NC(=O)[C@H](Cc1ccc(O)cc1)NC(=O)[C@H](CC(=O)O)NC(=O)[C@H](CO)NC(=O)[C@@H](NC(=O)[C@H](Cc1ccccc1)NC(=O)[C@@H](NC(=O)CNC(=O)[C@H](CCC(=O)O)NC(=O)C(C)(C)NC(=O)[C@@H](N)Cc1ccc(O)cc1)[C@@H](C)O)[C@@H](C)O)[C@@H](C)CC)C(C)C)C(=O)N[C@@H](CC(N)=O)C(=O)N[C@@H](CCCCNC(=O)CCCCCNC(=O)CC[C@H](NC(=O)CC[C@H](NC(=O)CC[C@H](NC(=O)CC[C@H](NC(=O)CC[C@H](NC(=O)CCCCCCCCCCCCCCCCC(=O)O)C(=O)O)C(=O)O)C(=O)O)C(=O)O)C(=O)O)C(=O)NC(C)(C)C(=O)N[C@H](C(=O)N[C@@H](CCCNC(=N)N)C(=O)N[C@@H](CCC(N)=O)C(=O)N[C@@H](CCCNC(=N)N)C(=O)N[C@@H](Cc1ccc(O)cc1)C(N)=O)[C@@H](C)O [Compound 13, Y-Aib-E-G-T-F-T-S-D-Y-S-I-Aib-L-E-K-Q-A-Q-Aib-A-F-V-R-H-L-I-N-K(1,3)-Aib-T-R-Q-R-Y-NH2.C18DA-gGlu-gGlu-gGlu-gGlu-gGlu-AHX(1,2)]"
0.7 nM,0.4 nM,4800 µg/mL,2 nM,"CC[C@H](C)[C@H](NC(=O)[C@H](CC(C)C)NC(=O)[C@H](Cc1c[nH]cn1)NC(=O)[C@H](CCCNC(=N)N)NC(=O)[C@@H](NC(=O)[C@H](Cc1ccccc1)NC(=O)[C@H](C)NC(=O)C(C)(C)NC(=O)[C@H](CCC(N)=O)NC(=O)[C@H](C)NC(=O)[C@H](CCC(=O)O)NC(=O)[C@H](CCC(=O)O)NC(=O)[C@H](CCC(=O)O)NC(=O)[C@H](CC(C)C)NC(=O)C(C)(C)NC(=O)[C@@H](NC(=O)[C@H](CO)NC(=O)[C@H](Cc1ccc(O)cc1)NC(=O)[C@H](CC(=O)O)NC(=O)[C@H](CO)NC(=O)[C@@H](NC(=O)[C@H](Cc1ccccc1)NC(=O)[C@@H](NC(=O)CNC(=O)[C@H](CCC(=O)O)NC(=O)C(C)(C)NC(=O)[C@@H](N)Cc1ccc(O)cc1)[C@@H](C)O)[C@@H](C)O)[C@@H](C)CC)C(C)C)C(=O)N[C@@H](CC(N)=O)C(=O)N[C@@H](CCCCNC(=O)CC[C@H](NC(=O)CC[C@H](NC(=O)CC[C@H](NC(=O)CC[C@H](NC(=O)CCCCCCCCCCCCCCCCC(=O)O)C(=O)O)C(=O)O)C(=O)O)C(=O)O)C(=O)NC(C)(C)C(=O)N[C@H](C(=O)N[C@@H](CCCNC(=N)N)C(=O)N[C@@H](CCC(N)=O)C(=O)N[C@@H](CCCNC(=N)N)C(=O)N[C@@H](Cc1ccc(O)cc1)C(N)=O)[C@@H](C)O [Compound 25, Y-Aib-E-G-T-F-T-S-D-Y-S-I-Aib-L-E-E-E-A-Q-Aib-A-F-V-R-H-L-I-N-K(1,3)-Aib-T-R-Q-R-Y-NH2.C18DA-gGlu-gGlu-gGlu-gGlu(1,2)]"

# The next lines start with the molecule.
Structure (SMILES),EC50 (hGLP1R; [2]),EC50 (hGIPR),solubility at 2 h [1],EC50 (hGLP1R; [3])
"CC[C@H](C)[C@H](NC(=O)[C@H](CC(C)C)NC(=O)[C@H](Cc1c[nH]cn1)NC(=O)[C@H](CCCNC(=N)N)NC(=O)[C@@H](NC(=O)[C@H](Cc1ccccc1)NC(=O)[C@H](C)NC(=O)C(C)(C)NC(=O)[C@H](CCC(N)=O)NC(=O)[C@H](C)NC(=O)[C@H](CCC(N)=O)NC(=O)[C@H](CCCCN)NC(=O)[C@H](CCC(=O)O)NC(=O)[C@H](CC(C)C)NC(=O)C(C)(C)NC(=O)[C@@H](NC(=O)[C@H](CO)NC(=O)[C@H](Cc1ccc(O)cc1)NC(=O)[C@H](CC(=O)O)NC(=O)[C@H](CO)NC(=O)[C@@H](NC(=O)[C@H](Cc1ccccc1)NC(=O)[C@@H](NC(=O)CNC(=O)[C@H](CCC(=O)O)NC(=O)C(C)(C)NC(=O)[C@@H](N)Cc1ccc(O)cc1)[C@@H](C)O)[C@@H](C)O)[C@@H](C)CC)C(C)C)C(=O)N[C@@H](CC(N)=O)C(=O)N[C@@H](CCCCNC(=O)CC[C@H](NC(=O)CC[C@H](NC(=O)CC[C@H](NC(=O)CC[C@H](NC(=O)CC[C@H](NC(=O)CC[C@H](NC(=O)CCCCCCCCCCCCCCCCC(=O)O)C(=O)O)C(=O)O)C(=O)O)C(=O)O)C(=O)O)C(=O)O)C(=O)N[C@@H](CC(C)C)C(=O)N[C@H](C(=O)N[C@@H](CCCNC(=N)N)C(=O)N[C@@H](CCC(N)=O)C(=O)N[C@@H](CCCNC(=N)N)C(=O)N[C@@H](Cc1ccc(O)cc1)C(N)=O)[C@@H](C)O [Compound 12, Y-Aib-E-G-T-F-T-S-D-Y-S-I-Aib-L-E-K-Q-A-Q-Aib-A-F-V-R-H-L-I-N-K(1,3)-L-T-R-Q-R-Y-NH2.C18DA-gGlu-gGlu-gGlu-gGlu-gGlu-gGlu(1,2)]",1.8 nM,0.8 nM,5000 µg/mL,
"CC[C@H](C)[C@H](NC(=O)[C@H](CC(C)C)NC(=O)[C@H](Cc1c[nH]cn1)NC(=O)[C@H](CCCNC(=N)N)NC(=O)[C@@H](NC(=O)[C@H](Cc1ccccc1)NC(=O)[C@H](C)NC(=O)C(C)(C)NC(=O)[C@H](CCC(N)=O)NC(=O)[C@H](C)NC(=O)[C@H](CCC(N)=O)NC(=O)[C@H](CCC(N)=O)NC(=O)[C@H](CCC(=O)O)NC(=O)[C@H](CC(C)C)NC(=O)C(C)(C)NC(=O)[C@@H](NC(=O)[C@H](CO)NC(=O)[C@H](Cc1ccc(O)cc1)NC(=O)[C@H](CC(=O)O)NC(=O)[C@H](CO)NC(=O)[C@@H](NC(=O)[C@H](Cc1ccccc1)NC(=O)[C@@H](NC(=O)CNC(=O)[C@H](CCC(=O)O)NC(=O)C(C)(C)NC(=O)[C@@H](N)Cc1ccc(O)cc1)[C@@H](C)O)[C@@H](C)O)[C@@H](C)CC)C(C)C)C(=O)N[C@@H](CC(N)=O)C(=O)N[C@@H](CCCCNC(=O)[C@@H](N)CCCCNC(=O)CC[C@H](NC(=O)CC[C@H](NC(=O)CC[C@H](NC(=O)CC[C@H](NC(=O)CC[C@H](NC(=O)CC[C@H](NC(=O)CCCCCCCCCCCCCCCCC(=O)O)C(=O)O)C(=O)O)C(=O)O)C(=O)O)C(=O)O)C(=O)O)C(=O)NC(C)(C)C(=O)N[C@H](C(=O)N[C@@H](CCCNC(=N)N)C(=O)N[C@@H](CCC(N)=O)C(=O)N[C@@H](CCCNC(=N)N)C(=O)N[C@@H](Cc1ccc(O)cc1)C(N)=O)[C@@H](C)O [Compound 23, Y-Aib-E-G-T-F-T-S-D-Y-S-I-Aib-L-E-Q-Q-A-Q-Aib-A-F-V-R-H-L-I-N-K(1,3)-Aib-T-R-Q-R-Y-NH2.C18DA-gGlu-gGlu-gGlu-gGlu-gGlu-gGlu-eLys(1,2)]",0.5 nM,0.2 nM,9400 µg/mL,
"CC[C@H](C)[C@H](NC(=O)[C@H](CC(C)C)NC(=O)[C@H](Cc1c[nH]cn1)NC(=O)[C@H](CCCNC(=N)N)NC(=O)[C@@H](NC(=O)[C@H](Cc1ccccc1)NC(=O)[C@H](CCC(=O)O)NC(=O)C(C)(C)NC(=O)[C@H](CCC(N)=O)NC(=O)[C@H](C)NC(=O)[C@H](CCC(N)=O)NC(=O)[C@H](CCCCN)NC(=O)[C@H](CCC(=O)O)NC(=O)[C@H](CC(C)C)NC(=O)C(C)(C)NC(=O)[C@@H](NC(=O)[C@H](CO)NC(=O)[C@H](Cc1ccc(O)cc1)NC(=O)[C@H](CC(=O)O)NC(=O)[C@H](CO)NC(=O)[C@@H](NC(=O)[C@H](Cc1ccccc1)NC(=O)[C@@H](NC(=O)CNC(=O)[C@H](CCC(=O)O)NC(=O)C(C)(C)NC(=O)[C@@H](N)Cc1ccc(O)cc1)[C@@H](C)O)[C@@H](C)O)[C@@H](C)CC)C(C)C)C(=O)N[C@@H](CC(N)=O)C(=O)N[C@@H](CCCCNC(=O)[C@@H](N)CCCCNC(=O)CC[C@H](NC(=O)CC[C@H](NC(=O)CC[C@H](NC(=O)CC[C@H](NC(=O)CC[C@H](NC(=O)CC[C@H](NC(=O)CC[C@H](NC(=O)CCCCCCCCCCCCCCCCC(=O)O)C(=O)O)C(=O)O)C(=O)O)C(=O)O)C(=O)O)C(=O)O)C(=O)O)C(=O)NC(C)(C)C(=O)N[C@H](C(=O)N[C@@H](CCCNC(=N)N)C(=O)N[C@@H](CCC(N)=O)C(=O)N[C@@H](CCCNC(=N)N)C(=O)N[C@@H](Cc1ccc(O)cc1)C(N)=O)[C@@H](C)O [Compound 30, Y-Aib-E-G-T-F-T-S-D-Y-S-I-Aib-L-E-K-Q-A-Q-Aib-E-F-V-R-H-L-I-N-K(1,3)-Aib-T-R-Q-R-Y-NH2.C18DA-gGlu-gGlu-gGlu-gGlu-gGlu-gGlu-gGlu-eLys(1,2)]",,0.3 nM,4700 µg/mL,0.9 nM
